Read-outs that look alike come from different tables or passages of the source.
Tests used:
[1] = test system: hBS-MP cells
Method: (§1) hBS cells were dissociated into small cell aggregates and seeded into 96-well plates (Nunc, Kamstrupvej, Denmark) in 100 μl Test medium containing Knock Out DMEM supplemented with 20% Foetal bovine Serum (FBS), 1% penicillin-streptomycin, 1% Glutamax, 0.5 mmol/l β-mercaptoethanol and 1% non-essential amino acids (all Invitrogen). hBS-MP cells and hFF cells were dissociated into single cells and seeded into 96-well plates in 100 μl test medium.
(§2) After 24 hours the cytotoxicity test was started by adding 100 μl toxicity solution to the test wells that had twice the concentration as the required end concentration (day 0).

[2] = test system: hBS cells; experiment: Cytotoxicity test in 96-well plates, 10 days (ATP content / Resazurin); details: for Ratios between the IC50 values measured using the Resazurin assay: hBS cells (reference = 1), day 10
[3] = test system: hFF cells; experiment: as above; details: for Ratios between the IC50 values measured using the Resazurin assay: hFF cells relative to hBS cells, day 10
[4] = test system: hBS-MP cells; experiment: as above; details: for sensitivity of hBS cells and hBS-MP cells compared to hFF cells (comparison of IC50 values): hBS and hBS-MP cells versus hFF cells; for Ratios between the IC50 values measured using the Resazurin assay: hBS-MP cells relative to hBS cells, day 10
Method: as §1, §2

| Compound | sensitivity of hBS cells and progenitor cells compared to hFF (dose-response curve) [1] | Ratios between the IC50 values measured using the Resazurin assay [2] | Ratios between the IC50 values measured using the Resazurin assay [3] | sensitivity of hBS cells and hBS-MP cells compared to hFF cells (comparison of IC50 values) [4] | Ratios between the IC50 values measured using the Resazurin assay [4] | sensitivity of hBS cells and hBS-MP cells compared to hFF cells (comparison of IC50 values) [1] | toxic reaction ([2]; hBS cells, data not shown) | toxic reaction ([3]; hFF cells, data not shown) | toxic reaction ([4]; hBS-MP cells, data not shown) |
| --- | --- | --- | --- | --- | --- | --- | --- | --- | --- |
| CC1=C(/C=C/C(C)=C/C=C/C(C)=C\C(=O)O)C(C)(C)CCC1 [13CRA, 13-cis-retinoic acid] | higher sensitivity | 1 | 10 | much more sensitive | 4 |  |  |  |  |
| O=c1[nH]cc(F)c(=O)[nH]1 [5-FU, 5-fluoro-uracil] |  | 1 | 7 |  | 3 | much more sensitive |  |  |  |
| O=C1NS(=O)(=O)c2ccccc21.[Na] [saccharin, sodium saccharin] |  |  |  |  |  |  | no toxic reaction | no toxic reaction | no toxic reaction |
| CC1=C(/C=C/C(C)=C/C=C/C(C)=C/C(=O)O)C(C)(C)CCC1 [ATRA, all-trans-retinoic acid] | higher sensitivity | 1 | 2 | much more sensitive | 1 |  |  |  |  |

Source: US20100136598A1, “NOVEL MESENCHYMAL PROGENITOR CELLS DERIVED FROM HUMAN BLASTOCYST-DERIVED STEM CELLS” (priority 2007, published 2010)
